From ChEMBL document CHEMBL5325391, “Spirolactone-type and enmein-type derivatives as potential anti-cancer agents derived from oridonin” (Bioorg Med Chem, 2022)

Assays:
[1] = system: SW480; experiment: Antiproliferative activity against human SW480 cells assessed as reduction in cell growth after 72 hrs by MTT assay; type: functional, cell-based; conditions: SW480, 72 h
[2] = system: K562; experiment: Antiproliferative activity against human K562 cells assessed as reduction in cell growth after 72 hrs by MTT assay; type: functional, cell-based; conditions: K562, 72 h
[3] = system: MDA-MB-231; experiment: Antiproliferative activity against human MDA-MB-231 cells assessed as reduction in cell growth after 72 hrs by MTT assay; type: functional, cell-based; conditions: MDA-MB-231, 72 h
[4] = system: SMMC-7721; experiment: Antiproliferative activity against human SMMC-7721 cells assessed as reduction in cell growth after 72 hrs by MTT assay; type: functional, cell-based; conditions: SMMC-7721, 72 h
[5] = system: K562; experiment: Potency index, ratio of oridonin IC50 to compound IC50 for antiproliferative activity against human K562 cells after 72 hrs by MTT assay; type: functional
[6] = Selectivity index, ratio of IC50 for human L02 cells to IC50 for human SMMC-7721 cells; type: toxicity; conditions: L02 cells versus SMMC-7721 cells, read-out: Ratio IC50
[7] = Cytotoxicity against human L02 cells incubated for 72 hrs by MTT assay; type: toxicity, cell-based

Compound | IC50 [1] [nM] | IC50 [2] [nM] | IC50 [3] [nM] | IC50 [4] [nM] | Ratio IC50 [5] | selectivity ratio [6] | IC50 at 72 h [7] [nM]
C=C1C(=O)[C@@]23C(=O)OC[C@]4(C=CCC(C)(C)[C@H]4C=O)[C@@H]2CC[C@@H]1[C@H]3OC(=O)/C=C/c1ccc2c(c1)OCO2 | 3490 | 1850 | 3070 | 3170 | – | – | –
C=C1C(=O)[C@@]23C(=O)OC[C@]4(C=CCC(C)(C)[C@H]4C=O)[C@@H]2CC[C@@H]1[C@H]3OC(=O)/C=C/c1ccc[nH]1 | 2450 | 1440 | 3990 | 2990 | – | – | –
C=C1C(=O)[C@@]23C(=O)OC[C@]4(C=CCC(C)(C)[C@H]4C=O)[C@@H]2CC[C@@H]1[C@H]3OC(=O)/C=C/C | 3800 | 1880 | 5120 | 3810 | – | – | –
C=C1C(=O)[C@@]23C(=O)OC[C@]4(C=CCC(C)(C)[C@H]4C=O)[C@@H]2CC[C@@H]1[C@H]3OC(=O)/C=C/c1ccco1 | 2280 | 1820 | 2920 | 2790 | – | – | –
C=C1C(=O)[C@@]23C(=O)OC[C@]4(C=CCC(C)(C)[C@H]4C=O)[C@@H]2CC[C@@H]1[C@H]3OC(=O)/C=C/c1ccc2ccccc2n1 | 3350 | 1230 | 5160 | 3000 | – | – | –
C=C1C(=O)[C@@]23C(=O)OC[C@]4(C=CCC(C)(C)[C@H]4C=O)[C@@H]2CC[C@@H]1[C@H]3OC(=O)/C=C/c1ccc2ccccc2c1 | 3100 | 1890 | 2430 | 2200 | – | – | –
C=C1C(=O)[C@@]23C(=O)OC[C@]4(C=CCC(C)(C)[C@H]4C=O)[C@@H]2CC[C@@H]1[C@H]3OC(=O)/C=C/c1ccsc1 | 3270 | 2440 | 3760 | 3840 | – | – | –
C=C1C(=O)[C@@]23C(=O)OC[C@]4(C=CCC(C)(C)[C@H]4C=O)[C@@H]2CC[C@@H]1[C@H]3OC(=O)/C=C/c1ccccc1 | 3550 | 1500 | 3230 | 3150 | – | – | –
C=C1C(=O)[C@@]23C(=O)OC[C@]4(C=CCC(C)(C)[C@H]4C=O)[C@@H]2CC[C@@H]1[C@H]3O | 2770 | 1270 | 2860 | 3740 | – | – | –
C=C1C(=O)[C@@]23C(=O)O[C@H]4CCC(C)(C)[C@H]5C(=O)OC[C@]45[C@H]2CC[C@@H]1[C@H]3O | 6600 | 5520 | 7620 | 5670 | – | – | –
C=C1C(=O)[C@]23[C@H](O)[C@H]1CC[C@H]2[C@@]12CO[C@]3(O)[C@@H](O)[C@@H]1C(C)(C)CC[C@@H]2O [ORIDONIN] | 10600 | 4250 | – | 14400 | – | 1.74 | 25000

Compounds with a lower IC50 [1], results first:

IC50 [1] [nM] | IC50 [2] [nM] | IC50 [3] [nM] | IC50 [4] [nM] | Compound | Ratio IC50 [5] | selectivity ratio [6] | IC50 at 72 h [7] [nM]
1690 | 980 | 1480 | 1020 | C=C1C(=O)[C@@]23C(=O)OC[C@]4(C=CCC(C)(C)[C@H]4C=O)[C@@H]2CC[C@@H]1[C@H]3OC(=O)/C=C/c1ccnc(C)c1 | – | – | –
1110 | 750 | 790 | 920 | C=C1C(=O)[C@@]23C(=O)OC[C@]4(C=CCC(C)(C)[C@H]4C=O)[C@@H]2CC[C@@H]1[C@H]3OC(=O)/C=C/c1ccnc(F)c1 | – | – | –
1020 | 930 | 2170 | 1980 | C=C1C(=O)[C@@]23C(=O)O[C@H]4CCC(C)(C)[C@H]5C(=O)OC[C@]45[C@H]2CC[C@@H]1[C@H]3OC(=O)/C=C/c1cncnc1 | – | – | –
980 | 750 | 2260 | 1980 | C=C1C(=O)[C@@]23C(=O)OC[C@]4(C=CCC(C)(C)[C@H]4C=O)[C@@H]2CC[C@@H]1[C@H]3OC(=O)/C=C/c1cncnc1 | – | – | –
970 | 680 | 870 | 990 | C=C1C(=O)[C@@]23C(=O)O[C@H]4CCC(C)(C)[C@H]5C(=O)OC[C@]45[C@H]2CC[C@@H]1[C@H]3OC(=O)/C=C/c1ccncc1F | – | – | –
940 | 680 | 830 | 960 | C=C1C(=O)[C@@]23C(=O)O[C@H]4CCC(C)(C)[C@H]5C(=O)OC[C@]45[C@H]2CC[C@@H]1[C@H]3OC(=O)/C=C/c1ccnc(OC)c1 | – | – | –
820 | 590 | 750 | 1710 | C=C1C(=O)[C@@]23C(=O)OC[C@]4(C=CCC(C)(C)[C@H]4C=O)[C@@H]2CC[C@@H]1[C@H]3OC(=O)/C=C/c1ccncc1 | 7 | – | –
780 | 650 | 760 | 810 | C=C1C(=O)[C@@]23C(=O)O[C@H]4CCC(C)(C)[C@H]5C(=O)OC[C@]45[C@H]2CC[C@@H]1[C@H]3OC(=O)/C=C/c1ccnc(F)c1 | – | – | –
760 | 910 | 1080 | 1080 | C=C1C(=O)[C@@]23C(=O)O[C@H]4CCC(C)(C)[C@H]5C(=O)OC[C@]45[C@H]2CC[C@@H]1[C@H]3OC(=O)/C=C/c1ccncc1C | – | – | –
730 | 540 | 840 | 620 | C=C1C(=O)[C@@]23C(=O)OC[C@]4(C=CCC(C)(C)[C@H]4C=O)[C@@H]2CC[C@@H]1[C@H]3OC(=O)/C=C/c1ccncc1F | – | – | –
700 | 550 | 820 | 840 | C=C1C(=O)[C@@]23C(=O)O[C@H]4CCC(C)(C)[C@H]5C(=O)OC[C@]45[C@H]2CC[C@@H]1[C@H]3OC(=O)/C=C/c1ccncc1 | 8 | – | –
660 | 560 | 1260 | 790 | C=C1C(=O)[C@@]23C(=O)OC[C@]4(C=CCC(C)(C)[C@H]4C=O)[C@@H]2CC[C@@H]1[C@H]3OC(=O)/C=C/c1ccccn1 | – | – | –
580 | 420 | 870 | 800 | C=C1C(=O)[C@@]23C(=O)OC[C@]4(C=CCC(C)(C)[C@H]4C=O)[C@@H]2CC[C@@H]1[C@H]3OC(=O)/C=C/c1ccncc1OC | – | – | –
